Measured values published in US20230381215A1, “NOVEL COMBINATION TREATMENT FOR ACUTE MYELOID LEUKEMIA (AML)” (Hoffmann-La Roche Inc., priority 2013, published 2023).

What was measured:
[1] = tested on: MOLM-13.luc.c4 (MOLM-13 human AML cells); test: Antitumor efficacy and survival/increase in life span (ILS) in disseminated MOLM-13.luc.c4 AML model; assay type: in vivo, SCID beige mice; conditions: for tumor burden by BLI photon counts compared to Vehicle-treated control (FIG. 1) / antitumor activity as assessed by tumor burden (BLI) or ILS: monotherapy; for tumor burden by BLI photon counts compared to Vehicle-treated control (FIG. 1): treatment initiated on day 3
Procedure: (§1) Female SCID beige mice (10/group), obtained from Charles River Laboratories (Wilmington, DE) were used when they were approximately 8-12 weeks old and weighed approximately 20-25 grams. The health of the mice was assessed daily by gross observation and analyses of blood samples taken from sentinel animals housed on shared shelf racks. All animals were allowed to acclimate and recover from any shipping-related stress for a minimum of 72 hours prior to experimental use. Autoclaved water and irradiated food (5058-ms Pico Lab mouse chow, Purina Mills, Richmond, IN) were provided ad libitum, and the animals were maintained on a 12 hour light and dark cycle. Cages, bedding and water bottles were autoclaved before use and changed weekly. All animal experiments were conducted in accordance with the Guide for the Care and Use of Laboratory Animals, local regulations, and protocols approved by the Roche Animal Care and Use Committee in an AAALAC accredited facility.
Parental MOLM-13 human AML cells were stably transfected with Luc2 lentiviral particles for 24 hrs in the presence of Polybrene (8 ug/ml) and then selected in the presence of Blasticidin for 3 weeks. Subsequently, one clone was selected by single cell plating in the presence of 0.1 mg/mL G418 and was designated MOLM-13.luc.c4. The lentiviral Luc2 expression plasmid was constructed by incorporating Luc2 gene (Promega) in to pLOC lentiviral plasmid backbone (Thermo Fisher Scientific). Luc2 lentiviral particles were prepared by using Trans-Lentiviral Packaging System (Thermo Fisher Scientific) as recommended.
MOLM-13.luc.c4 was maintained with RPMI 1640 with L-glutamine (2 mM) media (GIBCO/Invitrogen, Carlsbad, CA) supplemented with 10% heat-inactivated Fetal Bovine Serum (HI-FBS; GIBCO/Invitrogen, Carlsbad, CA), and 1% 100 mM sodium pyruvate. Freshly dissociated MOLM13-Luc.c4 cells (1×106 or 5×106) suspended in Phosphate Buffered Saline (PBS) were then intravenously inoculated via the caudal tail vein into female SCID-beige mice.
It was then filtered thru a 0.22 micron filter into a septum sealed vial for intravenous administration. […] Stock cytarabine (Ara-C injection, 100 mg/ml) was diluted in sterile 0.9% sodium chloride to 44 mg/ml according to manufacturer's instructions and dosed at 200 mg/kg iv twice weekly.
Treatment duration was 3 weeks.
(§2) For increased life span (ILS) assessment, animal body weights were measured two to three times per week, and animals were monitored daily for any clinical signs of toxicity or excessive tumor burden (i.e. hind limb paralysis or morbidity). In addition, progression of disease was monitored by in vivo bioluminescent imaging (BLI) using IVIS® Spectrum system. For each BLI session, mice received 100 mg/kg D-luciferin (Caliper Life Sciences/Perkin-Elmer) via ip injections and were imaged at 20 min post luciferin injection at either a 5 s or a 10 s exposure time. Images were captured by the IVIS® Spectrum system and data were collected and analyzed with Living Image 4.2.0 software (Caliper Life Sciences, Hopkinton, MA). Total photon fluxes (ph/s) representing luciferase activity within each fixed region of interest (ROI) covering whole tumors of individual mice were determined. The actual images of mice are not disclosed herein.
Quantification of bioluminescence allowed for direct longitudinal comparison of tumor burden between treatment groups prior to surrogate death end points being reached. Tumor burden was graphically represented as the mean BLI photon flux+standard error of the mean (SEM), and median survival was determined utilizing Kaplan Meier survival analysis. Statistical analysis of comparisons between groups was analyzed by two-way ANOVA, and post-hoc Bonferroni test (GraphPad Prism, version 4.3). Differences between groups were considered to be significant when the probability value (p) was ≤0.05.

[2] = Ara-C 200 mg/kg 2×/week iv; 10/group
Procedure: as §1, with “Cages, bedding and water bottles were autoclaved before use and changed weekly. All animal experiments were conducted in accordance with the Guide for the Care and Use of Laboratory Animals, local regulations, and protocols approved by the Roche Animal Care and Use Committee in an AAALAC accredited facility.” left out
as §2, with “For each BLI session, mice received 100 mg/kg D-luciferin (Caliper Life Sciences/Perkin-Elmer) via ip injections and were imaged at 20 min post luciferin injection at either a 5 s or a 10 s exposure time.” left out, “The actual images of mice are not disclosed herein.” left out

4-{[(2R,3S,4R,5S)-3-(3-Chloro-2-fluoro-phenyl)-4-(4-chloro-2-fluoro-phenyl)-4-cyano-5-(2,2-dimethyl-propyl)-pyrrolidine-2-carbonyl]-amino}-3-methoxy-benzoic acid 1-mPEG-carbonyloxy-ethyl ester (mPEG, average MW, 2200) [compound I-B]
% ILS vs. Vehicle control ([1]; Cpd I-B 437 mg/kg q7d iv): 37%
Median survival ([1]; Cpd I-B 437 mg/kg q7d iv, 5 million cells, treatment from day 3): 28 days
% ILS vs. Vehicle control ([1]; Cpd I-B 437 mg/kg q7d iv, listed as Cpd I-B): *37%
tumor burden by BLI photon counts compared to Vehicle-treated control (FIG. 1) ([1]; 5 million cells): significantly reduced photon counts

Nc1ccn([C@@H]2O[C@H](CO)[C@@H](O)[C@@H]2O)c(=O)n1 [Ara-C, cytarabine, reference compound]
Mortality [2]: 0
% ILS vs. Vehicle control ([1]; Ara-C 200 mg/kg 2×/wk iv): 0%
Median survival ([1]; Ara-C 200 mg/kg 2×/wk iv): 20 days
antitumor activity as assessed by tumor burden (BLI) or ILS [1]: lack of monotherapy activity
tumor burden by BLI photon counts compared to Vehicle-treated control (FIG. 1) ([1]; 5 million cells): no difference
antitumor activity as assessed by tumor burden (BLI) or ILS ([1]; listed as Cytarabine (Ara-C)): lack of antitumor activity

COc1cc(C(=O)O)ccc1NC(=O)[C@@H]1N[C@@H](CC(C)(C)C)[C@](C#N)(c2ccc(Cl)cc2F)[C@H]1c1cccc(Cl)c1F [compound (A), 4-{[(2R,3S,4R,5S)-4-(4-Chloro-2-fluoro-phenyl)-3-(3-chloro-2-fluoro-phenyl)-4-cyano-5-(2,2-dimethyl-propyl)-pyrrolidine-2-carbonyl]-amino}-3-methoxy-benzoic acid]
% ILS vs. Vehicle control ([1]; Cpd (A) 80 mg/kg qd × 5 po): *37%
Median survival ([1]; Cpd (A) 80 mg/kg qd × 5 po): 28 days
% ILS vs. Vehicle control ([1]; Cpd (A) 100 mg/kg q7d po): *22%
Median survival ([1]; Cpd (A) 100 mg/kg q7d po): 25 days
